Reference: ChEMBL document CHEMBL4649996, “Selective inhibition of BET bromodomains” (Nature, 2010)

What was measured:
Conditions in all cases: Compound concentration 10.0 uM, Protein concentration 2.0 uM
[1] = biological target: Nuclear body protein SP140-like protein (Homo sapiens) (UniProt Q9H930)
[2] = biological target: Histone acetyltransferase KAT2B (Homo sapiens) (UniProt Q92831)
[3] = biological target: Bromodomain-containing protein 2 (Homo sapiens) (UniProt P25440)
[4] = biological target: Bromodomain-containing protein 2 (Homo sapiens) (UniProt P25440); remark: listed apart in the source

Bromodomain-containing protein 2 (Homo sapiens), sequence (P25440 whole entry, looked up): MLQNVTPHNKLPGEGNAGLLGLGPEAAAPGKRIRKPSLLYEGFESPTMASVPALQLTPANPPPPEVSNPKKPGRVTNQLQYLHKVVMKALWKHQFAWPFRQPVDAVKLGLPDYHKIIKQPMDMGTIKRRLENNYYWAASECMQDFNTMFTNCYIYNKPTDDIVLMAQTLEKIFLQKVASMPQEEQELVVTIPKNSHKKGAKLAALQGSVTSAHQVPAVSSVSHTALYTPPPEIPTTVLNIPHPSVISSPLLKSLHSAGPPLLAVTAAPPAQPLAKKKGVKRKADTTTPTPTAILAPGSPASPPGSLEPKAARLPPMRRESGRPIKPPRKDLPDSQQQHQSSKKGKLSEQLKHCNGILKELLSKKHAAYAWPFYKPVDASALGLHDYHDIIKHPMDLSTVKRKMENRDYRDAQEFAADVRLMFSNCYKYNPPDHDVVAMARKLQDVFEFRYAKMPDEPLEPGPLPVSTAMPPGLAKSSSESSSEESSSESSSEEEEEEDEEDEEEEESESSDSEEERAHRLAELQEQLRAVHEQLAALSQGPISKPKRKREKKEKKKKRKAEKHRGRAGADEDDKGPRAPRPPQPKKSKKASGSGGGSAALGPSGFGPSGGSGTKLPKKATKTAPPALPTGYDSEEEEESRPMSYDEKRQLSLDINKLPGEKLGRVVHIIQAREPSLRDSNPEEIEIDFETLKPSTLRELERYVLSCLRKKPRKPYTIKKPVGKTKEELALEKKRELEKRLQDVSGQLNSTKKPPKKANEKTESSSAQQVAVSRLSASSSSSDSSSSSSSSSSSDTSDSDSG
Nuclear body protein SP140-like protein (Homo sapiens), sequence (Q9H930 whole entry): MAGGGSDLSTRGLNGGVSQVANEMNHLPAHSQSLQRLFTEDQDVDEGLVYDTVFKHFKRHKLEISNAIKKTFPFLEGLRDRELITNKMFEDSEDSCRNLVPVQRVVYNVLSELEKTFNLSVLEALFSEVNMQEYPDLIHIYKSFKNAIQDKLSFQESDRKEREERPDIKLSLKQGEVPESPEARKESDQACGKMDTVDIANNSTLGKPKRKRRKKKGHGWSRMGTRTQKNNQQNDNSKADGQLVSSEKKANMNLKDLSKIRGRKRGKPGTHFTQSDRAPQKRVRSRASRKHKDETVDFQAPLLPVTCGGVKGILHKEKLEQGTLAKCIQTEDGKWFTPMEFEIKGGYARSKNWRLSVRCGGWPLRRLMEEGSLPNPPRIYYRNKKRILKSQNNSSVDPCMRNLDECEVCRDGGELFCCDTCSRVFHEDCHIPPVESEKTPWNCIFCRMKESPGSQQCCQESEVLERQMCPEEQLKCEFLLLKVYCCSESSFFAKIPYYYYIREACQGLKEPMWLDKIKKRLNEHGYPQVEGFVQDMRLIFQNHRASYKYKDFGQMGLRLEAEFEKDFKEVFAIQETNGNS
Histone acetyltransferase KAT2B (Homo sapiens), sequence (Q92831 whole entry, looked up): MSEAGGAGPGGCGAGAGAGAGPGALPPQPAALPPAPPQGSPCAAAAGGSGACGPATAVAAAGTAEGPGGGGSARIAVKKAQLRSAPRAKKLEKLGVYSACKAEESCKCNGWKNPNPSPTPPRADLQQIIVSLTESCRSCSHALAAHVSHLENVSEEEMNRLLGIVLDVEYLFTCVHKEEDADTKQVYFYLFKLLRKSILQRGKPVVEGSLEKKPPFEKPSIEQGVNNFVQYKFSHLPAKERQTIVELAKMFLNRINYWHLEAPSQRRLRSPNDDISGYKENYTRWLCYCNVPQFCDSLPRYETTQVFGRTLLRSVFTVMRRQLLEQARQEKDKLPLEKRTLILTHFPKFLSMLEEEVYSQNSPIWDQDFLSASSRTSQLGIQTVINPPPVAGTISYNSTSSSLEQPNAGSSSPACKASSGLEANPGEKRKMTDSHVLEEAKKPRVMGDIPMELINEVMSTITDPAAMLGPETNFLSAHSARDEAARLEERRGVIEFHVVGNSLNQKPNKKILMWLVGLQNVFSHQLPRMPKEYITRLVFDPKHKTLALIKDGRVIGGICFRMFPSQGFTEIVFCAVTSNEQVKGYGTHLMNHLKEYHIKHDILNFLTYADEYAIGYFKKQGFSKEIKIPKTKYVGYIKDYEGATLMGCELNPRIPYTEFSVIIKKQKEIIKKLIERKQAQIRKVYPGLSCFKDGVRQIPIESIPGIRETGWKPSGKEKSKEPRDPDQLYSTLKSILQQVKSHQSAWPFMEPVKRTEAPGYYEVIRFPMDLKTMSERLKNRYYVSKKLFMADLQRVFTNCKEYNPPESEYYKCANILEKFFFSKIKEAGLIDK

Cc1sc2c(c1C)C(c1ccc(Cl)cc1)=N[C@@H](CC(=O)OC(C)(C)C)c1nnc(C)n1-2
ΔTm [1]: -0.07 °C | ΔTm [2]: 0.7 °C | ΔTm [3]: 8.16 °C | ΔTm [4]: 5.58 °C
